This assay addresses T1, human recombinant mGluR5 (Homo sapiens, UniProt P41594).
T1 construct: expressed in transfected cells; hygromycin and geneticin selection
Briefly: positive modulation of mGluR5, calcium based FLIPR assay. Particulars: HEK 293 cell line expressing human recombinant mGluR5; Ca2+ peak height after glutamate at approximately 5% basal stimulation; nonlinear regression. On the procedure: The positive modulation of mGluR5 is measured in a HEK 293 cell line expressing human recombinant mGluR5 and is detected with calcium based FLIPR assay. The cells are cultured with DMEM supplemented with 10% FCS, 2 μg/mL tetracycline, 100 μg/mL hygromycin and 500 μg/mL geneticin. The cell culture media is exchanged for tetracycline-free cell culture media 3-7 days before the assay. One day before the assay the cell culture medium is exchanged to DMEM without glutamine and phenol red and supplemented with 10% FCS, 100 μg/mL hygromycin and 500 μg/mL geneticin. On the assay day, the medium of the subconfluent cultures is removed and the cells are detached by addition of 2.5 ml EDTA (0.02%) per 175 cm2 culture flask for 1 minute. The cells are resuspend in Ringer solution (140 mM NaCl, 5 mM KCl, 2.5 mM CaCl2, 1.5 mM MgCl2, 5 mM Glucose, 10 mM Hepes; adjusted to pH 7.4 with NaOH), pooled and Ringer solution added to adjust the volume to 50 mL. The cell suspension is centrifuged for […] at 1500 U/min (425 g). The supernatant is removed and the cells washed a second time with 50 ml fresh Ringer solution and centrifuged again as before. The supernatant is again removed and the pellet resuspended in Ringer solution to 1,000,000 cells/ml (1×10^6 cells/mL). The cells are plated onto BD BioCoat Poly-D-Lysine 384 well plates (20.000 cells/well; 20 μl/well). The lid covered plates are then incubated until use at 37° C./10% CO2. For dye loading, 20 μl of Calcium-4 assay kit solution (prepared according to the manufacturer's description in Ringer solution) are added to the cells and the plates are incubated for 80 min 37° C. and then 10 min at room temperature.
Controls, Compound Dilution and Assay Execution:
Each assay plate contained wells with “high” and “low” controls:
Low controls 1% DMSO/ringer solution+basal glutamate activation (defined as 100% CTL).
High controls 10 μM CDPPB+basal glutamate activation (defined as 200% CTL).
Test compounds are dissolved and diluted in DMSO to 100-fold the desired concentrations. In a second step, the compounds are diluted in Ringer solution such that the compounds are 4-fold more concentrated than the desired final assay concentration. The final DMSO concentration was 1%.
20 μl of each compound solution are then transferred to the assay plate and the Ca2+ kinetic is measured to determine any intrinsic compound activity. After 5 min incubation in the FLIPR device, the second stimulation with 20 μl of glutamate in Ringer solution (glutamate concentration adjusted to approximately 5% basal stimulation of the maximal possible glutamate effect) is added and the kinetic Ca2+ response of the wells was measured for the modulation effect.
The peak height of the Ca release related fluorescence signal (9-66) is used for the EC50.
The EC50 of the modulation is calculated over a nonlinear regression with GraphPad Prism (Table 1).
T1 sequence (P41594 21-1212): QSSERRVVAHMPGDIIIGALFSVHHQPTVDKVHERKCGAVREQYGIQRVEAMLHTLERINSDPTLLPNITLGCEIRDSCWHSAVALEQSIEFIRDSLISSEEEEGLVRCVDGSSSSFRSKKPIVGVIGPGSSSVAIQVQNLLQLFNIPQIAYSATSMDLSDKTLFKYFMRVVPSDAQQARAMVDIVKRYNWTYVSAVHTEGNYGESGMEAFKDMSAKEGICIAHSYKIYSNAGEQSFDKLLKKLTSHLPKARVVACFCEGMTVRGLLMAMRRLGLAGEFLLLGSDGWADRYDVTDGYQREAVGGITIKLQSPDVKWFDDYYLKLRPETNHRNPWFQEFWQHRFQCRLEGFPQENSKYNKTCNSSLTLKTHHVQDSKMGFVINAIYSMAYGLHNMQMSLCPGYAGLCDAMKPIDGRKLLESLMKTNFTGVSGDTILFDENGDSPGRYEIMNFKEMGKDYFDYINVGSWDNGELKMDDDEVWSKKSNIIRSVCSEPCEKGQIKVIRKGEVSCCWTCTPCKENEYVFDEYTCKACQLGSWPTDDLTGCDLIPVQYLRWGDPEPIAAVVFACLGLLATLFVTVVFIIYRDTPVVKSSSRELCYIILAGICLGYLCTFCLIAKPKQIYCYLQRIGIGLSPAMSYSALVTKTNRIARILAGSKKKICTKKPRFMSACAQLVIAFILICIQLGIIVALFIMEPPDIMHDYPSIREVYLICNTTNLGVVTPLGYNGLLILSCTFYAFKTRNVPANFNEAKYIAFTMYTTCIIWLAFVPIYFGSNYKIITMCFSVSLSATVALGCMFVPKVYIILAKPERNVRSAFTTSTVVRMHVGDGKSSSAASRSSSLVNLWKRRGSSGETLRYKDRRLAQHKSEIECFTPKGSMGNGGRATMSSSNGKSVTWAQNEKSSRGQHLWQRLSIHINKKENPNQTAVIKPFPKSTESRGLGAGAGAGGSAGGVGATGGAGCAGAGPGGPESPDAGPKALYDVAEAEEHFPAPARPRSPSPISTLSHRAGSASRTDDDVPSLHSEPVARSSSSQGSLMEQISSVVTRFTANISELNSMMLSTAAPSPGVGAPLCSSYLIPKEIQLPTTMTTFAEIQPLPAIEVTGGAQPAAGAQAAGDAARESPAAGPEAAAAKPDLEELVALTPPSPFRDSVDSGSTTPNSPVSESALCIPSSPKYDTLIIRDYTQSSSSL
What is called EC50 is the concentration at which the effect is half-maximal. Regarding `CC1(C)CN(C(=O)c2cc3ccccc3c(OCC3CC3)n2)CCN1C(=O)c1ncn(-c2cccc(Cl)c2)n1` [Example 85], the concentration giving a half-maximal response (EC50) amounted to 109 nM. With `COc1cccc(C(=O)N2CCN(C(=O)c3ncn(-c4cccc(Cl)c4)n3)C[C@@H]2C)n1` [Example 252, (S)-{4-[1-(3-Chloro-phenyl)-1H-[1,2,4]triazole-3-carbonyl]-2-methyl-piperazin-1-yl}-(6-methoxy-pyridin-2-yl)-methanone], the half-maximal effective concentration (EC50) came out at 278 nM. Under `Cc1cccc(-n2cnc(C(=O)N3CCN(C(=O)c4c(C)oc5ccccc45)C(C)C3)n2)c1` (stereo not drawn) [Example 238] stands 317 nM. Under `CC1(C)CN(C(=O)c2cccc(Cl)c2)CCN1C(=O)c1ncn(-c2cccc(Cl)c2)n1` [Example 173, [4-(3-Chloro-benzoyl)-2,2-dimethyl-piperazin-1-yl]-[1-(3-chloro-phenyl)-1H-[1,2,4]triazol-3-yl]-methanone] stands 19 nM; under `CC1(C)CN(C(=O)c2cc(Cl)c3c(c2)OCCO3)CCN1C(=O)c1nnn(-c2ccccc2)n1` [Example 164, [4-(8-Chloro-2,3-dihydro-benzol-[1,4]dioxine-6-carbonyl)-2,2-dimethyl-piperazin-1-yl]-(2-phenyl-2H-tetrazol-5-yl)-methanone], 19 nM; under `CC(C#N)c1cccc(C(=O)N2CCN(C(=O)c3ncn(-c4cccc(Cl)c4)n3)C(C)(C)C2)c1` (stereo not drawn) [Example 75], 419 nM. As for `Cc1cccc(-n2nnc(C(=O)N3CCN(C(=O)c4cccc(Cl)c4)CC3(C)C)n2)c1` [Example 189], the figure is 36 nM; as for `CC1(C)CN(C(=O)c2csc(C(F)(F)F)n2)CCN1C(=O)c1ncn(-c2ccccc2)n1` [Example 152], 291 nM; as for `COc1cc(Cl)cc(C(=O)N2CCN(C(=O)c3nnn(-c4cccc(F)c4)n3)C(C)(C)C2)n1` [Example 169, [4-(4-Chloro-6-methoxy-pyridine-2-carbonyl)-2,2-dimethyl-piperazin-1-yl]-[2-(3-fluoro-phenyl)-2H-tetrazol-5-yl]-methanone], 27 nM. Consider `Cc1ccc(Cl)cc1C(=O)N1CCN(C(=O)c2ncn(-c3ccccc3)n2)C(C)(C)C1` [Example 154], for which the concentration for a half-maximal effect (EC50) was 157 nM. Consider `COc1nc(C(=O)N2CCN(C(=O)c3ncn(-c4ccccc4)n3)C(C)(C)C2)cc2cc(F)c(F)cc12` [Example 148], for which the EC50 amounted to 113 nM. Under `CC1(C)CN(C(=O)c2coc(C3CC3)n2)CCN1C(=O)c1ncn(-c2ccccc2)n1` [Example 140] stands 661 nM.

In the case of `CC(C)COc1cccc(C(=O)N2CCN(C(=O)c3ncn(-c4cccc(Cl)c4)n3)CC2C)c1` (stereo not drawn) [Example 216], the concentration giving a half-maximal response (EC50) was determined as 612 nM. Turning to `CC1(C)CN(C(=O)c2cc(Br)c(Br)o2)CCN1C(=O)c1ncn(-c2cccc(Cl)c2)n1` [Example 25], the EC50 worked out at 62 nM. As for `CC1CN(C(=O)c2ncn(-c3cccc(Cl)c3)n2)CCN1C(=O)c1ccc2c(c1)nc(CC1CCCC1)n2C` (stereo not drawn) [Example 229], the figure is 512 nM; as for `COc1ccnc(C(=O)N2CCN(C(=O)c3ncn(-c4cccc(Cl)c4)n3)C(C)(C)C2)c1` [Example 40], 852 nM. Consider `COc1cccc(C(=O)N2CCN(C(=O)c3nnn(-c4ccccc4F)n3)C(C)(C)C2)n1` [Example 201], for which the concentration giving a half-maximal response (EC50) stood at 102 nM.

`Cc1ccc2oc(C(=O)N3CCN(C(=O)c4ncn(-c5cccc(Cl)c5)n4)CC3C)c(C)c2c1` (stereo not drawn) [Example 227]: the 50% effective concentration (EC50) turned out to be 954 nM. Turning to `COc1cccc(C(=O)N2CCN(C(=O)c3ncn(-c4cccc(Cl)c4)n3)[C@@H](C)C2)n1` [Example 300, (S)-{4-[1-(3-Chloro-phenyl)-1H-[1,2,4]triazole-3-carbonyl]-3-methyl-piperazin-1-yl}-(6-methoxy-pyridin-2-yl)-methanone], the EC50 turned out to be 154 nM.

Consider `CC1(C)CN(C(=O)c2cccc(-c3ccncc3)c2)CCN1C(=O)c1ncn(-c2cccc(Cl)c2)n1` [Example 30], for which the EC50 came out at 115 nM. Under `COc1nc(C(=O)N2CCN(C(=O)c3ncn(-c4cccc(Cl)c4)n3)C(C)(C)C2)cc2ccccc12` [Example 42] stands 88 nM. In the case of `COc1ccc2oc(C)c(C(=O)N3CCN(C(=O)c4ncn(-c5ccccc5)n4)C(C)C3)c2c1` (stereo not drawn) [Example 291], the half-maximal effective concentration (EC50) turned out to be 47 nM. Under `COc1ccc(C(=O)N2CCN(C(=O)c3ncn(-c4ccccc4)n3)C(C)(C)C2)s1` [Example 119] stands 695 nM. Take `Cc1c(C(=O)N2CCN(C(=O)c3ncn(-c4cccc(Cl)c4)n3)CC2C)oc2ccc(F)cc12` (stereo not drawn) [Example 212]: the EC50 was determined as 568 nM. On to `COc1cc(Cl)cc(C(=O)N2CCN(C(=O)c3ncn(-c4ccccc4)n3)C(C)(C)C2)c1` [Example 121], for which the EC50 turned out to be 123 nM.

Turning to `CCC1(CC)CN(C(=O)c2cccc(Cl)c2)CCN1C(=O)c1ncn(-c2ccccc2)n1` [Example 313], the concentration for a half-maximal effect (EC50) turned out to be 931 nM. For the compound `CC1(C)CN(C(=O)c2cccc(-c3ccn[nH]3)n2)CCN1C(=O)c1ncn(-c2cccc(Cl)c2)n1` [Example 94], the concentration for a half-maximal effect (EC50) was determined as 285 nM. On to `Cc1c(C(=O)N2CCN(C(=O)c3ncn(-c4ccccc4)n3)C(C)C2)oc2ccc(F)cc12` (stereo not drawn) [Example 294], for which the 50% effective concentration (EC50) is 1080 nM. `Cc1cccc(-n2cnc(C(=O)N3CCN(C(=O)c4cc(Cl)c5c(c4)OCCO5)C(C)C3)n2)c1` (stereo not drawn) [Example 239]: the EC50 stood at 326 nM.

In the case of `Cn1c(CC2CCCC2)nc2ccc(C(=O)N3CCN(C(=O)c4ncn(-c5ccccc5)n4)C(C)(C)C3)cc21` [Example 179, [4-(2-cyclopentylmethyl-3-methyl-3H-benzoimidazole-5-carbonyl)-2,2-dimethyl-piperazin-1-yl]-(1-phenyl-1H-[1,2,4]-triazol-3-yl)-methanone], the EC50 is 153 nM. Under `CC1CN(C(=O)c2ncn(-c3cccc(Cl)c3)n2)CCN1C(=O)c1cc(Cl)c2c(c1)OCCO2` (stereo not drawn) [Example 221] stands 174 nM. As for `Cc1c(C(=O)N2CCN(C(=O)c3ncn(-c4ccccc4)n3)CC2C)oc2ccc(F)cc12` (stereo not drawn) [Example 241], the figure is 987 nM; as for `CC1(C)CN(C(=O)c2cccc(N3CCCC3)n2)CCN1C(=O)c1ncn(-c2cccc(Cl)c2)n1` [Example 51], 102 nM; as for `Cc1c(C(=O)N2CCN(C(=O)c3ncn(-c4cccc(Cl)c4)n3)C(C)(C)C2)oc2c(C)cccc12` [Example 66], 104 nM. As for `CC1(C)CN(C(=O)c2cccc(C(F)(F)F)c2)CCN1C(=O)c1nnn(-c2ccccc2)n1` [Example 166], the figure is 15 nM; as for `Cc1cc(C(=O)N2CCN(C(=O)c3ncn(-c4cccc(Cl)c4)n3)C(C)(C)C2)ccc1F` [Example 64], 262 nM; as for `COc1cccc(C(=O)N2CCN(C(=O)c3ncn(-c4cccc(F)c4)n3)C3(CCC3)C2)n1` [Example 307], 754 nM. As for `CC(C)c1cccc(C(=O)N2CCN(C(=O)c3ncn(-c4ccccc4)n3)C(C)(C)C2)c1` [Example 96, [4-(3-Isopropyl-benzoyl)-2,2-dimethyl-piperazin-1-yl]-(1-phenyl-1H-[1,2,4]triazol-3-yl)-methanone], the half-maximal effective concentration (EC50) is 25 nM. Turning to `CC1(C)CN(C(=O)c2cc(C(F)(F)F)ccn2)CCN1C(=O)c1ncn(-c2cccc(Cl)c2)n1` [Example 89], the EC50 was determined as 168 nM. As for `CCC1CN(C(=O)c2ncn(-c3cccc(Cl)c3)n2)CCN1C(=O)c1cccc(OC)n1` (stereo not drawn) [Example 258, {4-[1-(3-Chloro-phenyl)-1H-[1,2,4]triazole-3-carbonyl]-2-ethyl-piperazin-1-yl}-(6-methoxy-pyridin-2-yl)-methanone], the figure is 172 nM; as for `COc1cccc(C(=O)N2CCN(C(=O)c3ncn(-c4cccc(F)c4)n3)C3(CC3)C2)n1` [Example 304, {4-[1-(3-Fluoro-phenyl)-1H-[1,2,4]-triazole-3-carbonyl]-4,7-diaza-spiro[2.5]oct-7-yl}-(6-methoxy-pyridin-2-yl)-methanone], 845 nM. Turning to `COc1cccc(C(=O)N2CCN(C(=O)c3ncn(-c4cccc(Cl)c4)n3)C(C)(C)C2)c1` [Example 43], the concentration giving a half-maximal response (EC50) was 80 nM.

The values above are taken from US8883789B2, “Piperazine derivatives and their use as positive allosteric modulators of mGluR5 receptors” (Boehringer Ingelheim International GmbH, priority 2011, dated 2014).
